pIC50: −log10 of the molar value. Read-outs that look alike come from different tables or passages of the source. Some results are limits rather than exact numbers.

Common to all, as to type: biochemical
One assay concerns the target T1, IGFR-1 (Homo sapiens, UniProt P08069).
T1 construct: Kinases are expressed as either kinase domains or full length constructs; made in house
The assay is described as follows: Kinase inhibition assay (33P transfer), IGFR-1. The conditions noted are these: Table 2, class symbols A-E.

In another assay the target is T2, ErbB2 (Homo sapiens, UniProt P04626).
T2 construct: Kinases are expressed as either kinase domains or full length constructs; made in house
The assay is described as follows: Kinase inhibition assay (33P transfer), ErbB2. The conditions noted are these: read-out: ErbB2-2. A digest of the protocol:
(§1)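 IC50: inhibitor concentration lowering 33P incorporation into immobilised substrate by 50%. Label transferred from ATP to poly(Glu,Tyr) 4:1 or poly(Arg,Ser) 3:1 is measured after a 0.5% phosphoric acid wash by liquid scintillation.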

The target in the next assay is T3, Lck (Homo sapiens, UniProt P06239).
T3 construct: Kinases are expressed as either kinase domains or full length constructs; made in house
T3 sequence (P06239 whole entry, species assumed, the tested form may be a part): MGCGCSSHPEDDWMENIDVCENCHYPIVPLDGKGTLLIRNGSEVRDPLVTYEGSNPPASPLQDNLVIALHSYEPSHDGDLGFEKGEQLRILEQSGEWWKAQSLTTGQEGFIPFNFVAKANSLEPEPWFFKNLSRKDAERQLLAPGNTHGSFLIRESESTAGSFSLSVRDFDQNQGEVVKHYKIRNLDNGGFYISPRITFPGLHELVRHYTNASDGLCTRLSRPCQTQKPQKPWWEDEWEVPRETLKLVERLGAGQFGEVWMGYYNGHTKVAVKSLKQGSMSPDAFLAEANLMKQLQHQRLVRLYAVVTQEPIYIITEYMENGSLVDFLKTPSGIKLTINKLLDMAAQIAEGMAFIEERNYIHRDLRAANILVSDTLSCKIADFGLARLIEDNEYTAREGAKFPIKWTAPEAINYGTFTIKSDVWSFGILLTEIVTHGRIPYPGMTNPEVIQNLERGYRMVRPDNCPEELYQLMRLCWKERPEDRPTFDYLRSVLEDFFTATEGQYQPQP
The assay is described as follows: Kinase inhibition assay (33P transfer), Lck. A digest of the protocol: (§2)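 Measured by scintillation: radiolabelled phosphate added by tagged recombinant kinases to poly(Glu,Tyr) 4:1 or poly(Arg,Ser) 3:1 attached to microtiter wells, counted once free label was washed away with 0.5% phosphoric acid.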

In the next assay the target is T4, Zap-70 (Homo sapiens, UniProt P43403).
T4 construct: Kinases are expressed as either kinase domains or full length constructs; made in house
T4 sequence (P43403 1-619): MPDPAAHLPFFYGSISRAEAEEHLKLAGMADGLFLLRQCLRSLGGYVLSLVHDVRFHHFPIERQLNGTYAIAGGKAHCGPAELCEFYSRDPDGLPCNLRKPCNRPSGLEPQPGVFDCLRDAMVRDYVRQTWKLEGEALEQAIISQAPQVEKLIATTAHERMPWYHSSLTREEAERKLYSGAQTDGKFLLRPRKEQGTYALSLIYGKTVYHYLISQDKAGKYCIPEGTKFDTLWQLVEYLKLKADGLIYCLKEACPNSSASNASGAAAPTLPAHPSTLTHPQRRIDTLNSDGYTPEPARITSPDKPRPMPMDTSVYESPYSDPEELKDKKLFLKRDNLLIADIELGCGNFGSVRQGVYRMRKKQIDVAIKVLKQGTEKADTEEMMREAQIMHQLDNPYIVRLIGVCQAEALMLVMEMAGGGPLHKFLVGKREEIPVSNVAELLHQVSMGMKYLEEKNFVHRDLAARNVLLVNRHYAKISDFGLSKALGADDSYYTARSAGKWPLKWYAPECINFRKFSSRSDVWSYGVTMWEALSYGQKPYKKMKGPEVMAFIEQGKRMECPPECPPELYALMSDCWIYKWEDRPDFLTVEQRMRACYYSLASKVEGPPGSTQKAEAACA
The assay is described as follows: Kinase inhibition assay (33P transfer), Zap-70. Put shortly:
as §2

The target in the next assay is T5, Itk (Homo sapiens, UniProt Q08881).
T5 construct: Kinases are expressed as either kinase domains or full length constructs; made in house
T5 sequence (Q08881 1-620): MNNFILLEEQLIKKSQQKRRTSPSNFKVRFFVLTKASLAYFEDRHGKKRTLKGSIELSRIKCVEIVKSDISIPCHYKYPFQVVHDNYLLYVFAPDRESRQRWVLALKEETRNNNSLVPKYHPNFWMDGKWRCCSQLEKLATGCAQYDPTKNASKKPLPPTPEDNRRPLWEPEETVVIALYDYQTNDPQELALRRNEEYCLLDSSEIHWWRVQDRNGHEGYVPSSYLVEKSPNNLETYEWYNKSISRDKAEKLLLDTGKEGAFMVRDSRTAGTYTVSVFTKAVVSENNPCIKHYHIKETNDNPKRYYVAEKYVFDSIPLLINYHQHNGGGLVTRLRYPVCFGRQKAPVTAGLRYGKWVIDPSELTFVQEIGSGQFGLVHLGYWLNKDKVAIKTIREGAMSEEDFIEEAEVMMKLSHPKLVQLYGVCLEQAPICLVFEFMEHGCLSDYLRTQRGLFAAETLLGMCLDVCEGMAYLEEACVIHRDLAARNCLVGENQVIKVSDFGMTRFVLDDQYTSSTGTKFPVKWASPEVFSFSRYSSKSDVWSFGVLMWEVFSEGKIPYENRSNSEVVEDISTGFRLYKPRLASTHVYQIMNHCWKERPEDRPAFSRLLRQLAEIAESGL
The assay is described as follows: Kinase inhibition assay (33P transfer), Itk. The conditions noted are these: Table 3, class symbols; read-out: Itk-1. A digest of the protocol:
as §1

The next assay has as its target T6, AKT (Homo sapiens, UniProt Q9Y243).
T6 construct: Kinases are expressed as either kinase domains or full length constructs; made in house
The assay is described as follows: Kinase inhibition assay (33P transfer), AKT. Put shortly: as §2

In the next assay the target is T7, Kdr (Homo sapiens, UniProt P35968).
T7 construct: Kinases are expressed as either kinase domains or full length constructs; made in house
T7 sequence (P35968 20-1356, species assumed): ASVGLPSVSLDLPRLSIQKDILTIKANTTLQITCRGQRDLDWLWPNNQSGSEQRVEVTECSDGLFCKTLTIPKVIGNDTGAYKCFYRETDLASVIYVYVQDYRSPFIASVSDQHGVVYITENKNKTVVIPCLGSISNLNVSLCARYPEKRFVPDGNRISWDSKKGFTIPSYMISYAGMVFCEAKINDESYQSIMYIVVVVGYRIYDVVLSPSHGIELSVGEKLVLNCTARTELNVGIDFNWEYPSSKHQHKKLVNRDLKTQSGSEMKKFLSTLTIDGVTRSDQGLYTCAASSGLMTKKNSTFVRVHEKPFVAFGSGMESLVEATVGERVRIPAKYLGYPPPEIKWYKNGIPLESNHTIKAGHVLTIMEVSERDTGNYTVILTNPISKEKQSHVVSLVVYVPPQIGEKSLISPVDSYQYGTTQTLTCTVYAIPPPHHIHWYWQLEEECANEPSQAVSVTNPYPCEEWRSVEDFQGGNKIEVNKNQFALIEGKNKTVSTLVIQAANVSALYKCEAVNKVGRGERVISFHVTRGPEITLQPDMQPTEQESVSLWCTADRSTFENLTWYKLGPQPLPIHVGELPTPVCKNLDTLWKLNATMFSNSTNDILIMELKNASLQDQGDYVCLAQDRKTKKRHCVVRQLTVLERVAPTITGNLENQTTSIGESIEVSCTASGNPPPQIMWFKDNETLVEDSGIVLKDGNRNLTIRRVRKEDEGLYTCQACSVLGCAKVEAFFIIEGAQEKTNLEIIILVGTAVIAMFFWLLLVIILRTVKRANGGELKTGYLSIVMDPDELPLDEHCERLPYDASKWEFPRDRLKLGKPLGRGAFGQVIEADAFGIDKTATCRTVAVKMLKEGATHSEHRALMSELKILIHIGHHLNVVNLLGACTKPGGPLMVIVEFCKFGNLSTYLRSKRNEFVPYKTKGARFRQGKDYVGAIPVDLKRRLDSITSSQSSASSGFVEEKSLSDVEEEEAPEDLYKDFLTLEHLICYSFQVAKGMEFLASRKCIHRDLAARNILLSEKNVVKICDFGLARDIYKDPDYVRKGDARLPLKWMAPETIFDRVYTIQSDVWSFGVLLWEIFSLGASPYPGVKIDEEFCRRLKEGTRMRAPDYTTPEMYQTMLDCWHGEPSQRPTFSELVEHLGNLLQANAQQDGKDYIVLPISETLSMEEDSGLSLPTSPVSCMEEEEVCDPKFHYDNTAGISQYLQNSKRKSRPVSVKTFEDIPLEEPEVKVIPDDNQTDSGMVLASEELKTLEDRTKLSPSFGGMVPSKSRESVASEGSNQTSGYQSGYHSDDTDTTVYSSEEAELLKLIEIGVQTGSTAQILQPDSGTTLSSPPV
The assay is described as follows: Kinase inhibition assay (33P transfer), Kdr. The conditions noted are these: Table 3, class symbols; read-out: KDR-1. A digest of the protocol: as §2

In another assay the target is T8, c-Met (Homo sapiens, UniProt P08581).
T8 construct: Kinases are expressed as either kinase domains or full length constructs; made in house
T8 sequence (P08581 25-1390): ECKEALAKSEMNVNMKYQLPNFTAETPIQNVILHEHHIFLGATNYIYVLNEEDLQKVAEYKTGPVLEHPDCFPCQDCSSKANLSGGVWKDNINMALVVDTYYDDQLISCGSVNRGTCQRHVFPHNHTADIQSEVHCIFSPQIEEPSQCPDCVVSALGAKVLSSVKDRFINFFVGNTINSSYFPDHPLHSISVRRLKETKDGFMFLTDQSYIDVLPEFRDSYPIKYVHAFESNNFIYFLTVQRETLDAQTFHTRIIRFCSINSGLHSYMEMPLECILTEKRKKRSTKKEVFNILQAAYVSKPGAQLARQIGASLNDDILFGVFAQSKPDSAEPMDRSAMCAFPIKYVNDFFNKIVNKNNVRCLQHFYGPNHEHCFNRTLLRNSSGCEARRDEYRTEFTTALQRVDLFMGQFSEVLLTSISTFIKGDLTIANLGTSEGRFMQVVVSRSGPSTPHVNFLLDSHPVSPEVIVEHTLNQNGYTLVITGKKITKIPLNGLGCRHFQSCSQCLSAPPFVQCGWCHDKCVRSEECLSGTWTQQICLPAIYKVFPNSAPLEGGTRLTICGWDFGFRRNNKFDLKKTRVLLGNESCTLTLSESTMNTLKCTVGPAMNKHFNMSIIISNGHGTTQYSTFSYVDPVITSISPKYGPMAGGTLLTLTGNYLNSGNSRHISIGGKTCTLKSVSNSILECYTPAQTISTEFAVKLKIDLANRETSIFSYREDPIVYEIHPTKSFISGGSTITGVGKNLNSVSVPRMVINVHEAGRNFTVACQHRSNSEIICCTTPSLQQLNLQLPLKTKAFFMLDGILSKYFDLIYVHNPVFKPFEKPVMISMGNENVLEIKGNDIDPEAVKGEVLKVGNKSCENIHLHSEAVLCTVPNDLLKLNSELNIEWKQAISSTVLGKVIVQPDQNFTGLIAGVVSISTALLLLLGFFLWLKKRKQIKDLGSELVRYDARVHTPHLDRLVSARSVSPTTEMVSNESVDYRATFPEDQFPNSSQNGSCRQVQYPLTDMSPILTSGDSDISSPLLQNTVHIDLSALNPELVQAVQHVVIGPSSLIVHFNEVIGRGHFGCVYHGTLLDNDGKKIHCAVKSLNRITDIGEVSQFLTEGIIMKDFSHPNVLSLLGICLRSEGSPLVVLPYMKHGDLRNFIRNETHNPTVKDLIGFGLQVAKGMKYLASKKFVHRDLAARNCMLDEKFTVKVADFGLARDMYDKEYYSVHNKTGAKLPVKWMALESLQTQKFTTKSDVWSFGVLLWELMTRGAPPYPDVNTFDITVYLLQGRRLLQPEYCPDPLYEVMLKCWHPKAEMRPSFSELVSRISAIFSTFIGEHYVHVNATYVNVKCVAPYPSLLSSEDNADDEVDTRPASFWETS
The assay is described as follows: Kinase inhibition assay (33P transfer), c-Met. The conditions noted are these: Table 2, class symbols A-E; read-out: Met-1. Put shortly: as §1

The next assay deals with T9, EGFR (Homo sapiens, UniProt P00533).
T9 construct: Kinases are expressed as either kinase domains or full length constructs; made in house
The assay is described as follows: Kinase inhibition assay (33P transfer), EGFR. The conditions noted are these: Table 2, class symbols A-E; read-out: EGFR-1. Put shortly:
as §1

[1] abbreviates: Table 3, class symbols, read-out: Lck-1.
Where [2] appears, read: Table 3, class symbols, read-out: Zap-1.
Setting [3] is: Table 2, class symbols A-E, read-out: AKT3-1.

T1 sequence (P08069 31-1367): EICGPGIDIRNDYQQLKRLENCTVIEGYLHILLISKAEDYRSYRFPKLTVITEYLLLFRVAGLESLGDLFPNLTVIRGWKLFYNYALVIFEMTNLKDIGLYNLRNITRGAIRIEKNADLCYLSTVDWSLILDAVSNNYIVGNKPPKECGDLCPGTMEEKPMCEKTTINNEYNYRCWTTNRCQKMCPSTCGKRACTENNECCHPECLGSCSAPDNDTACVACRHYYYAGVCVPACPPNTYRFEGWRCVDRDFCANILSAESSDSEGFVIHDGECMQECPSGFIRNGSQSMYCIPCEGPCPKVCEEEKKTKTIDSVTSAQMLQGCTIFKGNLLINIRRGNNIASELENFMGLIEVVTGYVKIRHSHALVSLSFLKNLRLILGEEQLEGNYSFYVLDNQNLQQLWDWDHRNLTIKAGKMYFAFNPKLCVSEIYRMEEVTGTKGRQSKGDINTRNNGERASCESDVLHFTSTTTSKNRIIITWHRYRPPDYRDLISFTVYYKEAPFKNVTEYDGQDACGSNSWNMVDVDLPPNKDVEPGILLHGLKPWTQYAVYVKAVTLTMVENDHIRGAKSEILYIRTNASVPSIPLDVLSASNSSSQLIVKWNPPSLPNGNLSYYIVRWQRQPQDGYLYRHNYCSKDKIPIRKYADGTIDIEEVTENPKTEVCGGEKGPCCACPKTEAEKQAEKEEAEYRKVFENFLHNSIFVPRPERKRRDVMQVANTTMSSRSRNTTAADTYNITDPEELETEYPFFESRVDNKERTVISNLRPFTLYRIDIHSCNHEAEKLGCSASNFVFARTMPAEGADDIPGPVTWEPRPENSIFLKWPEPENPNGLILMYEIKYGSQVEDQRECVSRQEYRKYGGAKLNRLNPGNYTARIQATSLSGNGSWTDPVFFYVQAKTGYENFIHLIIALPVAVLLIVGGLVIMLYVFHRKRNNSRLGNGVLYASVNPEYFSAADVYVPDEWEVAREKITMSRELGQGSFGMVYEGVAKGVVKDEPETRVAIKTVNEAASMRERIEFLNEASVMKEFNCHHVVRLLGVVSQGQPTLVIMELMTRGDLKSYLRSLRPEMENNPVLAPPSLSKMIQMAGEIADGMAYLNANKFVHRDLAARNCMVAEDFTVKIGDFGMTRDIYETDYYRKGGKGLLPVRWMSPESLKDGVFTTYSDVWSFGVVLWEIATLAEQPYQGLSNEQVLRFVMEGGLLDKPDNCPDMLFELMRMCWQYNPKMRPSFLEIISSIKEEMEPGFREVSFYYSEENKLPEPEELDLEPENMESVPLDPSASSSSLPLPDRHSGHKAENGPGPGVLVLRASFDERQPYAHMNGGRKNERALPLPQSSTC
T6 sequence (Q9Y243 whole entry, the tested form may be a part): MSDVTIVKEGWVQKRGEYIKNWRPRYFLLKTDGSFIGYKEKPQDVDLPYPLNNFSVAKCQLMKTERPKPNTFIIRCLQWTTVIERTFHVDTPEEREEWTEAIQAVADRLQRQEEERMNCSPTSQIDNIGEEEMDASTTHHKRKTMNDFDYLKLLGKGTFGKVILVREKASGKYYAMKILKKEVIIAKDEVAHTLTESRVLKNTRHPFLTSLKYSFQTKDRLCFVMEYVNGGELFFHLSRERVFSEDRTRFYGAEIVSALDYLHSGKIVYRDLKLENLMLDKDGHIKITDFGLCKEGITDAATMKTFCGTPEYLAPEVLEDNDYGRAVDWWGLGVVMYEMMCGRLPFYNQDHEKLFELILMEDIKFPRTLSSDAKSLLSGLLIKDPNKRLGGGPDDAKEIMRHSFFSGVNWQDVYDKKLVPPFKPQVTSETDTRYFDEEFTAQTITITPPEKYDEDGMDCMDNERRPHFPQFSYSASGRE

Regarding `Clc1cccc(Nc2ncnc(Nc3ccc4[nH]ncc4c3)n2)c1` [Compound 134], the pIC50 against IGFR-1 was above 5.93; on ErbB2 it was 5.15 to 5.93; at Lck (setting [1]), 5.15 to 5.93; on Zap-70 (setting [2]), 5.15 to 5.93; at Itk it was above 5.93; on AKT (setting [3]), 5.15 to 5.93. Besides, the pIC50 at Kdr, at c-Met and at EGFR was above 5.93 in each case.

For the compound `CCOc1ccc(Nc2ncnc(N(C)c3cccc(Cl)c3)n2)cc1OCC` [Compound 640], the pIC50 is below 4.95 against IGFR-1; above 6.00 at ErbB2; 5.22 to 6.00 at Lck (setting [1]); below 4.95 at Zap-70 (setting [2]); below 4.95 on Itk; below 4.95 on AKT (setting [3]). Moreover, the pIC50 was 5.22 to 6.00 at Kdr, 5.22 to 6.00 on c-Met and above 6.00 at EGFR.

Turning to `CN(c1cccc(Cl)c1)c1ncnc(Nc2ccc(OCCO)cc2)n1` [Compound 641], the pIC50 is 5.19 to 5.97 on IGFR-1; 5.19 to 5.97 on ErbB2; 5.19 to 5.97 on Lck (setting [1]); below 4.92 on Zap-70 (setting [2]); below 4.92 at Itk; below 4.92 on AKT (setting [3]). Further, the pIC50 is 5.19 to 5.97 at Kdr, above 5.97 on c-Met and above 5.97 on EGFR.

In the case of `COc1cc(Nc2ncnc(Nc3cc(-c4ccc(C(N)=O)cc4)n[nH]3)n2)cc(OC)c1OC` [Compound 642], the pIC50 was above 6.06 against IGFR-1; 5.28 to 6.06 on ErbB2; above 6.06 at Lck (setting [1]); below 5.01 on Zap-70 (setting [2]); 5.28 to 6.06 on Itk; below 5.01 on AKT (setting [3]). Moreover, the pIC50 is 5.28 to 6.06 on Kdr, above 6.06 on c-Met and 5.28 to 6.06 on EGFR.

`c1ccc(Cn2ncc3cc(Nc4ncnc(Nc5cccc(Cn6ccnn6)c5)n4)ccc32)cc1` [Compound 676]: the pIC50 against IGFR-1 is 5.30 to 6.07; on ErbB2, above 6.07; on Lck (setting [1]), 5.30 to 6.07; on Zap-70 (setting [2]), below 5.02; at Itk it was 5.30 to 6.07; on AKT (setting [3]) it was 5.13 to 5.30. Moreover, the pIC50 at Kdr is 5.30 to 6.07; on c-Met, 5.30 to 6.07; on EGFR, above 6.07.

On to `CN(c1ccc2c(cnn2Cc2ccccc2)c1)c1ncnc(Nc2cccc(Cn3ccnn3)c2)n1` [Compound 677], for which the pIC50 was 5.14 to 5.31 against IGFR-1; above 6.09 at ErbB2; 5.31 to 6.09 on Lck (setting [1]); below 5.04 at Zap-70 (setting [2]); 5.14 to 5.31 at Itk; below 5.04 on AKT (setting [3]). Further, the pIC50 at Kdr, at c-Met and at EGFR was above 6.09 throughout.

Consider `COc1cc(Nc2ncnc(Nc3cccc(Cl)c3)n2)cc(OC)c1` [Compound 723], for which the pIC50 was above 5.95 on IGFR-1; above 5.95 on ErbB2; 5.17 to 5.95 on Lck (setting [1]); 5.17 to 5.95 at Zap-70 (setting [2]); 4.90 to 5.01 at Itk; 5.17 to 5.95 on AKT (setting [3]). Besides, the pIC50 on Kdr is 5.17 to 5.95; on c-Met it was 5.01 to 5.17; at EGFR it was above 5.95.

In the case of `COc1ccc(Nc2ncnc(Nc3ccc4c(c3)C(=O)N(C)C4=O)n2)cc1OC` [Compound 856], the pIC50 against IGFR-1 is 5.06 to 5.23; at ErbB2 it was 5.23 to 6.01; at Lck (setting [1]), below 4.96; at Zap-70 (setting [2]), below 4.96; at Itk, below 4.96; at AKT (setting [3]) it was below 4.96. Moreover, the pIC50 on Kdr, on c-Met and at EGFR was below 4.96 in each case.

As for `COc1ccc(Nc2ncnc(N(C)c3ccc(OC(F)(F)F)cc3)n2)cc1OC` [Compound 866], the pIC50 on IGFR-1 is below 4.97; at Lck (setting [1]), 5.08 to 5.24; at Zap-70 (setting [2]), below 4.97; on Itk, below 4.97; at AKT (setting [3]) it was below 4.97; at Kdr, 5.24 to 6.02. For the same compound, the pIC50 at c-Met and at EGFR was 5.24 to 6.02 each time.

Consider `COc1ccc(Nc2ncnc(N(C)c3ccccc3OC(F)(F)F)n2)cc1OC` [Compound 867], for which the pIC50 was below 4.97 against IGFR-1; 5.24 to 6.02 at Lck (setting [1]); below 4.97 at Zap-70 (setting [2]); below 4.97 on Itk; 5.24 to 6.02 on AKT (setting [3]); 4.97 to 5.08 at Kdr. Besides, the pIC50 at c-Met was above 6.02; on EGFR it was 5.24 to 6.02.

Take `COC(=O)c1cccc(Nc2ncnc(-n3c(Cl)nc4ccccc43)n2)c1` [Compound 1066]: the pIC50 on IGFR-1 is below 4.93; on Lck (setting [1]) it was below 4.93; at Zap-70 (setting [2]), below 4.93; on Itk, below 4.93; at AKT (setting [3]), 5.04 to 5.20; at Kdr, 5.04 to 5.20. Further, the pIC50 at c-Met and at EGFR was 5.04 to 5.20 throughout.

Consider `COc1cc(Nc2ncnc(-c3cccnc3Nc3ccccc3)n2)cc(OC)c1OC` [Compound 1092], for which the pIC50 is below 4.98 against IGFR-1; below 4.98 at ErbB2; below 4.98 against Lck (Lck-1, Table 3, class symbols); below 4.98 on Zap-70; below 4.98 at Itk; below 4.98 at AKT (AKT3-1, Table 2, class symbols A-E). Moreover, the pIC50 on c-Met and at EGFR was below 4.98 throughout.

Consider `CC(C)Nc1ncccc1-c1ncnc(Nc2cccc(CO)c2)n1` [Compound 1114], for which the pIC50 at IGFR-1 is below 4.87; on Lck (setting [1]), 5.15 to 5.92; on Zap-70 (setting [2]), 4.87 to 4.98; on Itk, 4.87 to 4.98; on AKT (setting [3]) it was below 4.87; on Kdr it was 5.15 to 5.92. The pIC50 on c-Met and at EGFR was 4.87 to 4.98 each time.

Regarding `OCc1cccc(Nc2ncnc(-c3cccnc3Nc3ccccc3)n2)c1` [Compound 1115], the pIC50 was below 4.92 against IGFR-1; 5.19 to 5.97 on Lck (setting [1]); below 4.92 at Zap-70 (setting [2]); below 4.92 on Itk; below 4.92 on AKT (setting [3]); above 5.97 on Kdr. Besides, the pIC50 at c-Met and on EGFR was 5.19 to 5.97 in each case.

For `CC(C)Nc1ncccc1-c1ncnc(Nc2ccc3[nH]ncc3c2)n1` [Compound 1116], the pIC50 against IGFR-1 was 5.16 to 5.94; at Lck (setting [1]), 5.16 to 5.94; at Zap-70 (setting [2]), below 4.89; on Itk it was below 4.89; at AKT (setting [3]), 4.89 to 5.00; on Kdr, 5.00 to 5.16. Besides, the pIC50 on c-Met and on EGFR was 5.16 to 5.94 each time.

With `c1ccc(Nc2ncccc2-c2ncnc(Nc3ccc4[nH]ncc4c3)n2)cc1` [Compound 1117], the pIC50 at IGFR-1 is below 4.93; on Lck (setting [1]), below 4.93; on Zap-70 (setting [2]) it was below 4.93; on Itk it was below 4.93; at AKT (setting [3]), below 4.93; at Kdr, above 5.98. In addition, the pIC50 on c-Met was 5.20 to 5.98; on EGFR, 4.93 to 5.04.

The record behind these values is patent US7074789B2, “Kinase inhibitors” (Amgen Inc., priority 1999, dated 2006).
